The results in this text go back to patent publication USRE37556E1, “Superoxide radical inhibitor” (Otsuka Pharmaceutical Co., Ltd., priority 1990, dated 2002).

Data set [1] deals with human neutrophilic leukocytes. Briefly: Inhibition of superoxide radical (O2-) generation in FMLP-stimulated human neutrophilic leukocytes (ferricytochrome C method). The class given is cell-based. The conditions noted are these: Homo sapiens, Leukocyte, pH 7.4, Table 15; O2- generation, 3x10^-7 M FMLP, cytochalasin B, 37° C., pH 7.4. The text has this:
(1) Activity for inhibiting the generation of superoxide radical (O2^−) in human neutrophilic leukocytes
That is, a whole blood obtained from a healthy adult and treated by anticoagulation method was subjected to a dextranhypotonic treatment to obtain leukocyte cells. The leukocyte cells were then subjected to a density gradient ultracentrifugation by Ficoll-Paque to obtain a neutrophilic leukocyte fraction.
O2^− generation was examined by the ferricytochrome C method in accordance with the method of B. N. Cronstein et al. [Journal of Experimental Medicine, vol. […] Each test compound was dissolved in dimethyl sulfoxide (DMSO); the solution was added to neutrophilic leukocytes before the addition of FMLP; then, the neutrophilic leukocytes were pre-incubated at 37° C.

pIC50: −log10 of the molar value.

As for `COc1ccc(-c2nc(-c3ccc4c(c3)CCCN4)cs2)cc1OC.Cl`, the melting point lay within 156 to 158 °C.

With `COc1ccc(-c2nc(-c3cc(N)cc(N)c3)cs2)cc1OC.Cl.Cl`, the melting point lay within 198 to 200 °C.

`CCOc1ccc(-c2nc(-c3ccc(O)c(CC)c3)c(CN(C)C)s2)cc1OCC.Cl.Cl` came in with a melting point of 163 to 168 °C.

For the molecule `CCOc1ccc(-c2nc(C3=CCN(C)CC3)cs2)cc1OCC`, the melting point lay in the range of 81.2 to 83.6 °C.

With `CCOc1ccc(-c2nc(-c3cccc(CN(C)C)n3)cs2)cc1OCC.Cl.Cl`, the melting point is 195 °C (dec.).

The molecule `CCOc1ccc(-c2nc(-c3ccc(NCCN4CCCCC4)c(C(=O)OC)c3)cs2)cc1OCC.Cl.Cl` displayed a melting point of 93 to 94 °C.

For `CCOc1ccc(-c2nc(-c3ccc(O[Si](C)(C)C(C)(C)C)c(CO)c3)cs2)cc1OCC`, the melting point was in the range of 101.3 to 103 °C.

Molecule `COc1ccc(-c2nc(-c3ccc(O)c(O)c3)cs2)cc1OC.Cl` [Example 1, 2-(3,4-dimethoxyphenyl)-4-(3,4-dihydroxyphenyl) thiazole hydrochloride] returned a melting point of 146 to 148 °C.

Molecule `COc1ccc(-c2nc(-c3ccc4c(c3)CCC(=O)N4)co2)cc1OC` [Example 137, 2-(3,4-dimethoxyphenyl)-4-(3,4-dihydrocarbostyril-6-yl) oxazole] showed a melting point of 191 to 192 °C.

In the case of `[O-][n+]1cccc(-c2nc(-c3ccccc3)cs2)c1` [Example 139, 3-(4-phenylthiazol-2-yl) pyridine-N-oxide], the melting point fell in the range of 140 to 141 °C.

For the molecule `O=c1[nH]cccc1-c1nc(-c2ccccc2)cs1` [Example 140, 2-(2-oxopyridin-3-yl)4-phenylthiazole], the melting point was 206 to 207 °C (dec.).

Molecule `COc1ccc(-c2nc(-c3ccc4c(c3)N(C)C(=O)CS4)cs2)cc1OC` [Example 143, 2-(3,4-dimethoxyphenyl)-4-(4-methyl-2H-1,4-benzothiazin-3(4H)-one-6-yl)thiazole] returned a melting point of 143.5 to 144 °C.

In turn, `COc1ccc(-c2nc(-c3ccc4c(c3)CCCN4C(=O)c3ccccc3)cs2)cc1OC` [Example 144, 2-(3,4-dimethoxyphenyl)-4-(1-benzoyl-1,2,3,4-tetrahydroquinolin-6-yl)thiazole] yielded a melting point of 152.5 to 153.5 °C.

Regarding `COc1ccc(-c2nc(-c3ccc4oc(=O)[nH]c4c3)cs2)cc1OC` [Example 145, 2-(3,4-dimethoxyphenyl)-4-(benzoxazol-2-on-5-yl) thiazole], the melting point was in the range of 271 to 272 °C.

Consider `O=C1CCc2cc(-c3csc(-c4ccc(C(=O)O)cc4)n3)ccc2N1` [Example 147, 2-(4-carboxyphenyl)-4-(3,4-dihydrocarbostyril-6-yl)thiazole], for which the melting point was no less than 300 °C.

Molecule `NC(=O)c1ccc(-c2nc(-c3ccc4c(c3)CCC(=O)N4)cs2)cc1` [Example 148, 2-(4-carbamoylphenyl)-4-(3,4-dihydrocarbostyril-6-yl)thiazole] returned a melting point of no less than 300 °C.

As for `CCOc1ccc(-c2nc(-c3ccc(C(=O)O)nc3)cs2)cc1OCC` [compound 144, 2-(3,4-Diethoxyphenyl)-4-(2-carboxy-5-pyridyl)-thiazole], in data set [1], the pIC50 was 7.46.

With `CCOc1ccc(-c2nc(-c3cc(Br)c(O)c(C(=O)O)c3)cs2)cc1OCC` [compound 145, 2-(3,4-Diethoxyphenyl)-4-(3-carboxy-4-hydroxy-5-bromophenyl)thiazole], the negative logarithm of the IC50 (pIC50) in data set [1] was 6.96.

In turn, `CCOc1ccc(-c2nc(-c3ccc(N(C)C)c(C(=O)O)c3)cs2)cc1OCC` [compound 146, 2-(3,4-Diethoxyphenyl)-4-(3-carboxy-4-dimethylaminophenyl)thiazole] showed a negative logarithm of the IC50 (pIC50) in data set [1] of 6.96.

`C=Cc1cc(-c2csc(-c3ccc(OCC)c(OCC)c3)n2)cc(C(=O)O)c1O` [compound 147, 2-(3,4-Diethoxyphenyl)-4-(3-carboxy-4-hydroxy-5-vinylphenyl)thiazole]: in data set [1], the pIC50 is 8.00.

What is called melting point is the temperature, or range, at which the solid turns liquid. Broadly, the pIC50 is the negative decadic logarithm of the IC50, by convention in mol/L.
